According to patent publication US7501424B2, “N-phenyl-2-pyrimidine-amine derivatives and process for the preparation thereof” (Il-Yang Pharm. Co., Ltd., priority 2005, dated 2009):
Converted amounts (≈) assume the structure as drawn. Read-outs that look alike come from different tables or passages of the source.

Legend:
SK-OV-03 = experiment: Growth inhibition of ovarian cancer cell SK-OV-03 (MTT); type: cell-based; details: for IC50: SK-OV-03, Experiment 4
Procedure: (§1) In the present experiment, the inhibitory activity of the compound of formula (1) was determined against the growth of K562 cancer cell. First, the cells were allowed to stand in RPMI (Roswell Park Memorial Institute)-1640 medium containing 10% (v/v) fetal bovine serum in an incubator of 37° C. and 5% by volume of CO2. The cancer cells (1000 cells) were transferred to a 96-well plate, and the test compound was diluted. The plate was allowed to stand under the above mentioned conditions for 2 days. After this treatment, to the cells was added 0.2% MTT (3-[4,5-dimethylthiazol-2-yl]-2,5-diphenyltetrazolium bromide) solution, and the resulting mixture was allowed to stand under the constant temperature-condition for 4 hours. The supernatant was removed to leave the resulting crystal. DMSO was added to dissolve the crystal, and the absorbance of the solution was measured at 540 nm. IC50 value was calculated using a computer system according to the following formula: (OD540(test)−OD540(blank)/OD540(control)−OD540(blank))×100
(§2) The test was performed according to the same procedure as Experiment 1.

SNU-1 = experiment: Growth inhibition of gastric cancer cell SNU-1 (MTT); type: cell-based
Procedure: as §1, §2, §2

A549 = experiment: Growth inhibition of lung cancer cell A549 (MTT); type: cell-based
Procedure: as §1, §2, §2

KB = experiment: Growth inhibition of oral epithelial cancer cell KB (MTT); type: cell-based
Procedure: as §1, §2

Sarcoma-180 = experiment: Growth inhibition of Sarcoma-180 (MTT); type: cell-based; details: for IC50: Sarcoma-180, Experiment 4
Procedure: as §1, §2

HT-1197 = experiment: Growth inhibition of bladder cancer cell HT-1197 (MTT); type: cell-based; details: Homo sapiens, HT1197; HT-1197, Experiment 3
Procedure: as §1, §2

RPMI-6666 = experiment: Growth inhibition of lymphoma cell RPMI-6666 (MTT); type: cell-based; details: Homo sapiens; RPMI-6666, Experiment 3
Procedure: as §1, §2

Panc-1 = experiment: Growth inhibition of pancreatic cancer cell Panc-1 (MTT); type: cell-based; details: Homo sapiens; Panc-1, Experiment 3
Procedure: as §1, §2

A-172 = experiment: Growth inhibition of encephalophyma cell A-172 (MTT); type: cell-based; details: Homo sapiens; A-172, Experiment 3
Procedure: as §1, §2

[1] = Comparative pharmacokinetic test in white rats
[2] = Acute toxicity test in mice (oral administration); type: in vivo; details: both sexes, ICR, mouse, in vivo, po
Procedure: (§3) In order to determine the acute toxicity of the compound of the present invention when the compound is orally administered, mice (ICR, 24˜26 g) were fasted for 16 hours. One group consists of 10 males and 10 females. The first group is the control group and 0.5% sodium carboxymethyl cellulose (CMC) was administered per oral to this group. The compounds of Examples 5 and 8 were orally administered in a dosage of 2,000 mg/kg, the maximum dosage in acute toxicity test, to each test group. […] On the last day of the test, 14th day from the start, the mice were subjected to an autopsy in order to examine changes of the internal organs. […] Further, since no mouse died during the test period, it was confirmed that the compounds of Examples 5 and 8 have LD50 of 2,000 mg/kg or more. This means that the compounds of the present invention including those of Examples 5 and 8 are safe in the aspect of acute toxicity.

mice (ICR) = experiment: Acute toxicity test in mice (oral administration); type: in vivo; details: mice (ICR), oral 2,000 mg/kg, 14 days
Procedure: as §3

CT-26 cancer cell = experiment: Growth inhibition of CT-26 cancer cell (MTT); type: cell-based; details: for improved activity compared with Imatinib mesylate: CT-26; for IC50: CT-26, MTT, 2 days
Procedure: as §1
In the present experiment, the inhibitory activity of the compounds of formula (1) was determined against the growth of CT-26 cancer cell. The test was performed according to the same procedure as Experiment 1.

K562 cancer cell = experiment: Growth inhibition of K562 cancer cell (MTT); type: cell-based; details: for IC50: Homo sapiens, K562, 48 h, K562, MTT, 2 days; for improved activity compared with Imatinib mesylate: K562
Procedure: as §1

rat (SD-Rat) = experiment: Acute toxicity test in rat (oral administration); type: in vivo; details: SD-Rat, orally 1,000, 2,000 mg/kg, 14 days
Procedure: (§4) In this test, the acute toxicity of the compound of the present invention when the compound is […] was determined on rat (SD-Rat, 100˜110 g). One group consists of 5 males and 5 females. The first group is the control group and 0.5% CMC was intravenously administered to this group. The compounds of Examples 5 and 8 were orally administered in a dosage of 1,000, 2,000 mg/kg, respectively, to each test group. […] On the last day of the test, 14th day from the start, the rat were subjected to an autopsy in order to examine changes of the internal organs. […] Further, since no […] died during the test period, it was confirmed that the compounds of Examples 5 and 8 have LD50 of 2,000 mg/kg or more. This means that the compounds of the present invention including those of Examples 5 and 8 are safe in the aspect of acute toxicity.

[3] = Acute toxicity test in rat (oral administration); type: in vivo; details: both sexes, SD, rat, in vivo, po
Procedure: as §4

SNU-C1 = experiment: Growth inhibition of colon cancer cell SNU-C1 (MTT); type: cell-based; details: Homo sapiens; SNU-C1, Experiment 3
Procedure: as §1, §2

in vivo = details: male, Sprague-Dawley, rat, po, 100 mg/kg
[4] = male, Sprague-Dawley, rat, plasma, po, 100 mg/kg
[5] = Homo sapiens, SNU1, SNU-1, Experiment 3, read-out: IC50
[6] = Mus musculus, CT26, 48 h, read-out: IC50
[7] = Homo sapiens, A549, Experiment 3, read-out: IC50

N.N.[Cl][Pt][Cl] [Cisplatin, reference compound]
IC50 (SK-OV-03): 782 ng/mL
IC50 (SNU-1; SNU-1, Experiment 4): 2064 ng/mL
IC50 (A549; A549, Experiment 4): 679 ng/mL
IC50 (KB; Experiment 4): 0.28 ng/mL
IC50 (Sarcoma-180): <0.1 ng/mL

Cc1cn(-c2cc(NC(=O)c3ccc(C)c(Nc4nccc(-c5nccs5)n4)c3)cc(C(F)(F)F)c2)cn1 [Example 5, 4-methyl-N-[3-(4-methylimidazol-1-yl)-5-trifluoromethyl-phenyl]-3-(4-thiazol-2-yl-pyrimidin-2-ylamino)-benzamide]
IC50 (HT-1197): 63 ng/mL (≈ 0.118 µM)
IC50 (RPMI-6666): < 10 ng/mL
IC50 (Panc-1): 7100 ng/mL (≈ 13.3 µM)
IC50 (A-172): < 10 ng/mL
AUC [1, 4]: 114000 ng·h/mL
Cmax [1, 4]: 8270 ng/mL
Tmax [1, 4]: 11.2 h
AUC as much as that of Imatinib mesylate ([1]; white rats, 100 mg/kg per oral): ~5 times
Cmax as much as that of Imatinib mesylate ([1]; white rats, 100 mg/kg per oral): about 4 times
IC50 (SNU-1; [5]): < 10 ng/mL
LD50 at 14 days [2]: ≥ 2000 mg/kg
clinical conditions and autopsy (mice (ICR)): neither abnormal response nor specific autopsy result was observed
improved activity compared with Imatinib mesylate (CT-26 cancer cell): 300 times
IC50 (CT-26 cancer cell; [6]): 60 ng/mL (≈ 0.112 µM)
IC50 (K562 cancer cell): ≤ 10 ng/mL
improved activity compared with Imatinib mesylate (K562 cancer cell): 50 times
clinical conditions and autopsy (rat (SD-Rat)): neither abnormal response nor specific autopsy result was observed
LD50 at 14 days [3]: ≥ 2000 mg/kg
IC50 (A549; [7]): 82 ng/mL (≈ 0.153 µM)
IC50 (SNU-C1): < 10 ng/mL

Cc1ccc(C(=O)Nc2cc(-n3ccnc3C)cc(C(F)(F)F)c2)cc1Nc1nccc(-c2nccs2)n1 [Example 6, 4-methyl-N-[3-(2-methylimidazol-1-yl)-5-trifluoromethyl-phenyl]-3-(4-thiazol-2-yl-pyrimidin-2-ylamino)-benzamide]
improved activity compared with Imatinib mesylate (CT-26 cancer cell): 300 times
IC50 (CT-26 cancer cell; [6]): < 10 ng/mL
improved activity compared with Imatinib mesylate (K562 cancer cell): 50 times

Cc1cnc(NC(=O)c2ccc(C)c(Nc3nccc(-c4nccs4)n3)c2)s1 [Example 7, 4-methyl-N-(5-methylthiazol-2-yl)-3-(4-thiazol-2-yl-pyrimidin-2-ylamino)-benzamide]
improved activity compared with Imatinib mesylate (CT-26 cancer cell): 300 times
IC50 (CT-26 cancer cell; [6]): < 10 ng/mL
IC50 (K562 cancer cell): ≤ 10 ng/mL
improved activity compared with Imatinib mesylate (K562 cancer cell): 50 times

Cc1cn(-c2cc(NC(=O)c3ccc(C)c(Nc4nccc(-c5cnccn5)n4)c3)cc(C(F)(F)F)c2)cn1 [Example 8, 4-methyl-N-[3-(4-methylimidazol-1-yl)-5-trifluoromethyl-phenyl]-3-(4-pyrazin-2-yl-pyrimidin-2-ylamino)-benzamide]
AUC (in vivo): 61300 ng·h/mL
Cmax (in vivo): 4100 ng/mL
Tmax (in vivo): 12 h
IC50 (RPMI-6666): < 10 ng/mL
IC50 (Panc-1): 498 ng/mL (≈ 0.939 µM)
improved activity than Imatinib mesylate (SK-OV-03; SK-OV-03): > 12 times
IC50 (SK-OV-03; read-out: IC50): 2390 ng/mL (≈ 4.51 µM)
IC50 (A-172): < 10 ng/mL
IC50 (SNU-1; [5]): < 10 ng/mL
IC50 (SNU-1; Homo sapiens, SNU1, SNU-1, Experiment 4, read-out: IC50): 270 ng/mL (≈ 0.509 µM)
improved activity in comparison with cisplatin (SNU-1; SNU-1, Experiment 4): more than 8 times
improved activity than Imatinib mesylate (SNU-1; SNU-1, Experiment 4): more than 170 times
LD50 at 14 days [2]: ≥ 2000 mg/kg
clinical conditions and autopsy (mice (ICR)): neither abnormal response nor specific autopsy result was observed
improved activity compared with Imatinib mesylate (CT-26 cancer cell): 300 times
IC50 (CT-26 cancer cell; [6]): < 10 ng/mL
IC50 (K562 cancer cell): ≤ 10 ng/mL
improved activity compared with Imatinib mesylate (K562 cancer cell): 50 times
clinical conditions and autopsy (rat (SD-Rat)): neither abnormal response nor specific autopsy result was observed
LD50 at 14 days [3]: ≥ 2000 mg/kg
improved activity than Imatinib mesylate (A549; A549, Experiment 4): > 3.5 times
IC50 (A549; [7]): 2230 ng/mL (≈ 4.2 µM)
improved activity than Imatinib mesylate (KB): more than 1×10^4 time
IC50 (KB; Homo sapiens, Experiment 4, read-out: IC50): 0.58 ng/mL (≈ 0.00109 µM)
IC50 (SNU-C1): < 10 ng/mL
IC50 (Sarcoma-180; Mus musculus, read-out: IC50): < 0.1 ng/mL
improved activity than Imatinib mesylate (Sarcoma-180; Sarcoma-180): more than 1×10^4 time

Cc1ccc(C(=O)Nc2cc(-n3ccnc3C)cc(C(F)(F)F)c2)cc1Nc1nccc(-c2cnccn2)n1 [Example 9, 4-methyl-N-[3-(2-methylimidazol-1-yl)-5-trifluoromethyl-phenyl]-3-(4-pyrazin-2-yl-pyrimidin-2-ylamino)-benzamide]
improved activity compared with Imatinib mesylate (CT-26 cancer cell): 300 times
IC50 (CT-26 cancer cell; [6]): < 10 ng/mL
IC50 (K562 cancer cell): ≤ 10 ng/mL
improved activity compared with Imatinib mesylate (K562 cancer cell): 50 times

Cc1cn(-c2cc(NC(=O)c3ccc(C)c(Nc4nccc(-c5nccnc5C)n4)c3)cc(C(F)(F)F)c2)cn1 [Example 12, 4-methyl-N-[3-(4-methylimidazol-1-yl)-5-trifluoromethyl-phenyl]-3-[4-(3-methylpyrazin-2-yl)-pyrimidin-2-ylamino]-benzamide]
IC50 (CT-26 cancer cell; [6]): 2930 ng/mL (≈ 5.38 µM)
IC50 (K562 cancer cell): 210 ng/mL (≈ 0.386 µM)
improved activity compared with Imatinib mesylate (K562 cancer cell): much higher activity than Imatinib mesylate

Cc1ccc(C(=O)Nc2cc(-n3ccnc3C)cc(C(F)(F)F)c2)cc1Nc1nccc(-c2nccnc2C)n1 [Example 13, 4-methyl-N-[3-(2-methylimidazol-1-yl)-5-trifluoromethyl-phenyl]-3-[4-(3-methylpyrazin-2-yl)-pyrimidin-2-ylamino]-benzamide]
IC50 (CT-26 cancer cell; [6]): 3770 ng/mL (≈ 6.92 µM)
IC50 (K562 cancer cell): 304 ng/mL (≈ 0.558 µM)
improved activity compared with Imatinib mesylate (K562 cancer cell): much higher activity than Imatinib mesylate

Cc1cn(-c2cc(NC(=O)c3ccc(Nc4nccc(-c5cccnc5)n4)cc3)cc(C(F)(F)F)c2)cn1.Cl.Cl [Example 24, N-[3-(4-methylimidazol-1-yl)-5-trifluoromethyl-phenyl]-4-(4-pyridin-3-yl-pyrimidin-2-ylamino)-benzamide 2 hydrochloride]
improved activity compared with Imatinib mesylate (CT-26 cancer cell): 300 times
IC50 (CT-26 cancer cell): 2.3 ng/mL
improved activity compared with Imatinib mesylate (K562 cancer cell): 50 times

Cc1cn(-c2cc(NC(=O)c3ccc(Nc4nccc(-c5nccs5)n4)cc3)cc(C(F)(F)F)c2)cn1.Cl.Cl [Example 30, N-[3-(4-methylimidazol-1-yl)-5-trifluoromethyl-phenyl]-4-(4-thiazol-2-yl-pyrimidin-2-ylamino)-benzamide 2 hydrochloride]
improved activity compared with Imatinib mesylate (CT-26 cancer cell): 300 times
IC50 (CT-26 cancer cell): 9.4 ng/mL
improved activity compared with Imatinib mesylate (K562 cancer cell): 50 times
